The values that follow come from the RepoRT retention time repository (doi:10.1016/j.foodchem.2021.129757).

A short description of the first data set: RP, Waters ACQUITY UPLC HSS T3, 100 × 2.1 mm, 1.8 µm, 30 °C, 0.4 mL/min, estimated dead time 0.55 min; A: water + 0.1% formic acid, pH 3; B: acetonitrile + 0.1% formic acid, pH 3; gradient (min/%B) 0/0 2/0 15/100 22/100 22.1/0 26/0. Particulars: stereoisomer not certain.
Turning to `CCCCCCCCCCCCCCCCCc1cc(O)cc(O)c1` [Alkylresorcinol C17:0], the LC retention time is 20.3 min.

The nature of another data set: RP, Phenomenex Kinetex EVO C18, 100 × 2.1 mm, 2.6 µm, 40 °C, 0.4 mL/min, estimated dead time 0.55 min; A: water + 0.2% formic acid; B: acetonitrile + 0.2% formic acid; gradient (min/%B) 0/5 0.5/5 7/95 8/95 8.5/5 12/5. Particulars: stereoisomer not certain.
`O=c1oc2cc(O)ccc2c2ccc(O)cc12` [Urolithin A]: the LC retention time is 5.59 min.
Regarding `CC=C1C(OC2OC(CO)C(O)C(O)C2O)OC=C(C(=O)OC)C1CC(=O)OCCc1ccc(O)c(O)c1` (centres undefined) [Oleuropein], the LC retention time is 5.24 min.

The nature of a further data set: RP, Phenomenex Luna Omega Polar C18, 100 × 2.1 mm, 1.6 µm, 40 °C, 0.5 mL/min, estimated dead time 0.44 min; A: water + 0.1% formic acid + 10 mM ammonium formate; B: acetonitrile; gradient (min/%B) 0/5 8/20 10/100 12/100 12.1/5 14/5. The settings on record: stereoisomer not certain.
Turning to `CC1CCC2(C(=O)O)CCC3(C)C(=CCC4C5(C)CCC(O)C(C)(C)C5CCC43C)C2C1C` (centres undefined) [Ursolic acid], the LC retention time is 10.9 min.
On to `O=c1oc2cc(O)ccc2c2ccc(O)cc12` [Urolithin A], for which the LC retention time is 9.38 min.
`CCCCCCCCCCCCCCCCCCCCCCCCCc1cc(O)cc(O)c1` [Alkylresorcinol C25:0]: the LC retention time is 11 min.
Still for that read-out and setting: the result for `O=S(=O)(O)Oc1ccccc1O` [Catechol O-sulfate] reads 1.79 min; that for `COc1c(O)cc(C(=O)O)cc1OS(=O)(=O)O` [4-O-methylgallic acid 3-O-sulfate], 1.78 min; that for `OCCc1ccc(O)c(O)c1` [Hydroxytyrosol], 2.05 min.
Same read-out and setting: the result for `CCCCCCCCCCCCCCCCCc1cc(O)cc(O)c1` [Alkylresorcinol C17:0] reads 11.1 min.

A short description of the next data set: RP, Agilent ZORBAX RRHD Eclipse Plus C18, 50 × 2.1 mm, 1.8 µm, 30 °C, 0.4 mL/min, estimated dead time 0.28 min; A: water + 0.1% formic acid, pH 3; B: acetonitrile + 0.1% formic acid, pH 3; gradient (min/%B) 0/1 5/10 8/25 9.1/99 10/99 12/99. The settings on record: stereoisomer not certain.
`O=C(O)/C=C/c1cccc(O)c1` [m-Coumaric acid]: the LC retention time is 7.99 min.
Still for that read-out and setting: to `O=S(=O)(O)Oc1ccccc1O` [Catechol O-sulfate] belongs 1.45 min.
On the same count and under the same terms, to `COc1c(O)cc(C(=O)O)cc1OS(=O)(=O)O` [4-O-methylgallic acid 3-O-sulfate] belongs 1.15 min.

A short description of another data set: RP, Agilent ZORBAX Eclipse XDB-C18, 100 × 2.1 mm, 1.8 µm, 50 °C, 0.4 mL/min, estimated dead time 0.55 min; A: water + 0.1% formic acid, pH 3; B: methanol + 0.1% formic acid, pH 3; gradient (min/%B) 0/2 10/100 14.5/100 14.51/2 16.5/2. The settings on record: stereoisomer not certain.
As to `CC1CCC2(C(=O)O)CCC3(C)C(=CCC4C5(C)CCC(O)C(C)(C)C5CCC43C)C2C1C` (centres undefined) [Ursolic acid], the LC retention time is 10.7 min.
On to `O=c1oc2cc(O)ccc2c2ccc(O)cc12` [Urolithin A], for which the LC retention time is 5.95 min.
On the same count and under the same terms, the result for `CCCCCCCCCCCCCCCCCCCCCCCCCc1cc(O)cc(O)c1` [Alkylresorcinol C25:0] reads 13 min.
On the same count and under the same terms, to `OCC1OC(Oc2cc3c(O)cc(O)cc3[o+]c2-c2ccc(O)c(O)c2)C(O)C(O)C1O` (centres undefined) [Cyanidin 3-O-glucoside] belongs 3.52 min; to `O=S(=O)(O)Oc1ccccc1O` [Catechol O-sulfate], 2.1 min.
On the same count and under the same terms, to `COc1c(O)cc(C(=O)O)cc1OS(=O)(=O)O` [4-O-methylgallic acid 3-O-sulfate] belongs 2.27 min; to `OCCc1ccc(O)c(O)c1` [Hydroxytyrosol], 2.44 min.
Take `CCCCCCCCCCCCCCCCCc1cc(O)cc(O)c1` [Alkylresorcinol C17:0]: the LC retention time is 11.1 min.

A short description of a further data set: RP, Agilent InfinityLab Poroshell 120 EC-C18, 100 × 3 mm, 2.7 µm, 25 °C, 0.4 mL/min, estimated dead time 1.1 min; A: water + 0.1% formic acid, pH 3; B: acetonitrile + 0.1% formic acid, pH 3; gradient (min/%B) 0/5 10/25 20/40 24/90 25/90 26/5 30/5. The settings on record: stereoisomer not certain.
For the molecule `O=c1oc2cc(O)ccc2c2ccc(O)cc12` [Urolithin A], the LC retention time is 13.1 min.
Consider `O=C1CC(c2ccc(O)cc2)Oc2cc(O)cc(O)c21` (centres undefined) [Naringenin], for which the LC retention time was 16.3 min.
Still for that read-out and setting: to `OCC1OC(Oc2cc3c(O)cc(O)cc3[o+]c2-c2ccc(O)c(O)c2)C(O)C(O)C1O` (centres undefined) [Cyanidin 3-O-glucoside] belongs 5.65 min; to `O=S(=O)(O)Oc1ccccc1O` [Catechol O-sulfate], 4.22 min.
With `COc1c(O)cc(C(=O)O)cc1OS(=O)(=O)O` [4-O-methylgallic acid 3-O-sulfate], the LC retention time is 3.61 min.
For the molecule `OCCc1ccc(O)c(O)c1` [Hydroxytyrosol], the LC retention time was 3.8 min.

Another data set is described as follows: RP, Phenomenex Synergi Hydro-RP, 250 × 2 mm, 4 µm, 25 °C, 0.2 mL/min, estimated dead time 2.5 min; A: water + 0.1% formic acid, pH 3; B: acetonitrile + 0.1% formic acid, pH 3; gradient (min/%B) 0/0.5 7/0.5 12/12.5 25/16.3 47/35 48/65 50/65 50.1/0.5. Particulars: stereoisomer not certain.
Turning to `O=C(O)/C=C/c1cccc(O)c1` [m-Coumaric acid], the LC retention time was 33.9 min.

The nature of the next data set: RP, 150 × 2.1 mm, 2.6 µm, 40 °C, 0.35 mL/min, estimated dead time 0.94 min; A: water + 0.1% formic acid, pH 3; B: acetonitrile + 0.1% formic acid, pH 3; gradient (min/%B) 0/0 1/0 12.5/100 14/100 14.2/0 15/0. The settings on record: stereoisomer not certain.
With `O=C1CC(c2ccc(O)cc2)Oc2cc(O)cc(O)c21` (centres undefined) [Naringenin], the LC retention time is 7.61 min.
Same read-out and setting: the result for `O=c1c(O)c(-c2ccc(OC3OC(CO)C(O)C(O)C3O)c(O)c2)oc2cc(O)cc(O)c12` (centres undefined) [Quercetin 4-O-glucoside] reads 6.09 min.
With `O=c1cc(-c2ccc(O)c(O)c2)oc2cc(OC3OC(CO)C(O)C(O)C3O)cc(O)c12` (centres undefined) [Luteolin 7-glucoside], the LC retention time is 5.68 min.

Another data set in a line: RP, Waters ACQUITY UPLC BEH Shield RP18, 100 × 2.1 mm, 1.7 µm, 30 °C, 0.6 mL/min, estimated dead time 0.37 min; A: water + 0.1% formic acid, pH 3; B: acetonitrile + 0.1% formic acid, pH 3; gradient (min/%B) 0/0 2/0 7/10 22/95 22.1/0 26/0. The settings on record: stereoisomer not certain.
For `CC1CCC2(C(=O)O)CCC3(C)C(=CCC4C5(C)CCC(O)C(C)(C)C5CCC43C)C2C1C` (centres undefined) [Ursolic acid], the LC retention time was 22.7 min.
The same measure, in the same setting: the result for `O=c1oc2cc(O)ccc2c2ccc(O)cc12` [Urolithin A] reads 14.9 min.
Still for that read-out and setting: to `OCC1OC(Oc2cc3c(O)cc(O)cc3[o+]c2-c2ccc(O)c(O)c2)C(O)C(O)C1O` (centres undefined) [Cyanidin 3-O-glucoside] belongs 10.8 min; to `COc1c(O)cc(C(=O)O)cc1OS(=O)(=O)O` [4-O-methylgallic acid 3-O-sulfate], 10.4 min.

The next data set can be described thus: RP, Waters ACQUITY UPLC BEH Shield RP18, 150 × 2.1 mm, 1.7 µm, 40 °C, 0.4 mL/min, estimated dead time 0.83 min; A: water + 0.1% formic acid, pH 3; B: acetonitrile + 0.1% formic acid, pH 3; gradient (min/%B) 0/0 30/50 31/100 37/100 37.1/0. Particulars: stereoisomer not certain.
With `CC1CCC2(C(=O)O)CCC3(C)C(=CCC4C5(C)CCC(O)C(C)(C)C5CCC43C)C2C1C` (centres undefined) [Ursolic acid], the LC retention time is 34.2 min.
Take `O=c1oc2cc(O)ccc2c2ccc(O)cc12` [Urolithin A]: the LC retention time was 18.4 min.
With `O=C1CC(c2ccc(O)cc2)Oc2cc(O)cc(O)c21` (centres undefined) [Naringenin], the LC retention time was 21.1 min.
The same measure, in the same setting: the result for `OCC1OC(Oc2cc3c(O)cc(O)cc3[o+]c2-c2ccc(O)c(O)c2)C(O)C(O)C1O` (centres undefined) [Cyanidin 3-O-glucoside] reads 7.98 min.
In the case of `O=S(=O)(O)Oc1ccccc1O` [Catechol O-sulfate], the LC retention time is 7.99 min.
The same measure, in the same setting: the result for `O=c1cc(-c2ccc(O)c(O)c2)oc2cc(OC3OC(CO)C(O)C(O)C3O)cc(O)c12` (centres undefined) [Luteolin 7-glucoside] reads 12.4 min.
Same read-out and setting: to `OCCc1ccc(O)c(O)c1` [Hydroxytyrosol] belongs 3.26 min.

A short description of another data set: RP, Waters ACQUITY UPLC HSS T3, 100 × 2.1 mm, 50 °C; A: water + 0.1% formic acid, pH 3; B: 30% methanol + 70% acetonitrile + 0.1% formic acid, pH 3; gradient (min/%B) 0/5 1/8 2/15 3/40 4/70 4.5/100 5/100 6.4/100 6.6/5 6.8/5 7/5. The settings on record: stereoisomer not certain.
Take `O=C(O)/C=C/c1cccc(O)c1` [m-Coumaric acid]: the LC retention time is 3.53 min.
Turning to `O=S(=O)(O)Oc1ccccc1O` [Catechol O-sulfate], the LC retention time worked out at 2.26 min.
